{"source": "patent US20220137027A1", "about": "“METHOD FOR EVALUATING MOLECULAR CHANGES RELATED TO A MOLECULE EFFECT IN A BIOLOGICAL SAMPLE” (IMABIOTECH, priority 2019, published 2022)", "type_in_all_cases": "in vivo, BALB/c mice", "key": {"[1]": {"test": "Epacadostat quantification in CT26 tumor sections by LC-MS/MS", "details": "BALB/c, mouse, CT26 tumor tissue sections, 100 mg/kg oral gavage"}, "IDO1": {"biological_target": "T1, IDO1 (Mus musculus, UniProt P28776)", "T1 construct": "Colon carcinoma CT26 cell line was subcutaneously grafted into BALB/c mice; from tissue", "T1 sequence (P28776 whole entry)": "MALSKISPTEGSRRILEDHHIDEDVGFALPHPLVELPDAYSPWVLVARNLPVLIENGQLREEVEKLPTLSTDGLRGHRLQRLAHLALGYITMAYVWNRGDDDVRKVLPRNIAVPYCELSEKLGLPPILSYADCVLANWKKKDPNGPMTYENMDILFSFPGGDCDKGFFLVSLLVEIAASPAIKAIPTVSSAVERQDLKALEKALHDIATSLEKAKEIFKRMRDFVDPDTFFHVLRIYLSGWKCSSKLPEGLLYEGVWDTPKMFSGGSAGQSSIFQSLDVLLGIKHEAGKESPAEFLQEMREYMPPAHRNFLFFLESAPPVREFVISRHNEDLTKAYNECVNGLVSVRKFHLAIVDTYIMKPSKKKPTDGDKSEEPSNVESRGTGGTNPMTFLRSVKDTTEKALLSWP", "test": "Regional exposure to response analysis in segmented ROIs of treated CT26 tumor (Kyn, Lactate, IDO1 immunostaining)", "protocol": "(§1) Colon carcinoma CT26 cell line was subcutaneously grafted into BALB/c mice (Charles River Laboratories, France). […] Tumors were sampled and snap frozen in liquid nitrogen for 15 s. The samples were kept at −80° C. until use. Ten micrometers thick tissue sections were obtained using a cryostat microtome (CM-3050S, Leica, Germany) with a microtome chamber and a specimen holder chilled at −23° C. Tissue sections were thaw mounted onto ITO-coated slides for downstream MALDI imaging and serial sections on SuperFrost slide for histological and immunohistochemistry (IHC) analysis. Biological replicates in duplicate (distant serial sections) were performed for analytical reproducibility. […] All animal experiments were compliant with the 2010/63/UE European Directive on Laboratory Animal Welfare and were approved by an Ethical Committee.\nAs Kyn was not detectable and Trp was slightly seen using classical method in CT26 tumor models, a derivatization strategy was necessary. The derivatization reaction amounts to adding the C11H16N+ (as X) unit to the neutral analyte. The agent was applied using an automatic sprayer (Suncollect, Sunchrom) and left during 30 min for incubation at room temperature. […] MSI data for kynurenine and tryptophan was recorded in positive ion mode (CASI, m/z range 350.0+/−150) at 120 μm of spatial resolution using an online calibration. […]\nFor MALDI MSI of other metabolites, a uniform layer of filtrated 1,5-diaminonaphtalene (1,5-DAN) prepared at 10 mg/mL with 50/50 ACN/H2O matrix was deposited onto the tumor tissue sections using an HTX-TM sprayer device (HTX Technologies, LLC, Carrboro, N.C.). […] MSI data for metabolites were recorded in full scan negative ion mode (m/z range 100-1000) at 120 μm of spatial resolution using an online calibration. […]\n1.2 software (ImaBiotech SAS). This multimodal imaging platform combines quantitative mass spectrometry imaging (QMSI) and microscopy platform with statistical analysis for the understanding of the Omics information at cellular levels. […] Finally, an exposure score was calculated using the Multimaging software using the formula: […]"}, "[2]": {"test": "Epacadostat quantification in plasma and blood", "details": "BALB/c, mouse, 100 mg/kg oral"}, "[3]": {"test": "Epacadostat absolute quantification in CT26 tumor sections by QMSI (MALDI MSI)", "protocol": "as §1\nThen, low limit of detection (LOD), low limit of quantitation (LLOQ) and limit of linearity parameters were defined for the calibration curve that has been performed using at least 10 spotted concentrations on 10 μm thickness control tumor tissue sections. […] On the same ITO slide, calibration curve and tissue sections of interest (1 control and 3 treated in duplicates) were deposited and analyzed. Then, a uniform layer of filtrated 1,5-diaminonaphtalene (1,5-DAN) prepared at 10 mg/mL with 50/50 ACN/H2O matrix was deposited onto the tumor tissue sections using an HTX-TM sprayer device (HTX Technologies, LLC, Carrboro, N.C.). MALDI MSI analyses were performed using 7T MALDI-FTICR (SolariX XR, Bruker Daltonics, Bremen, Germany) with a SmartBeam II laser. […] Data acquisition was performed using the Flex software (FtmsControl 2.1.0) from Bruker Daltonics. Then, Multimaging software (ImaBiotech SAS) was used to obtain the calculated equation and to extract the different quantities in pmol/mm^2. A quantity conversion to μg/g of tissue was then obtained in created regions of interest (ROIs).\n1.2 software (ImaBiotech SAS). This multimodal imaging platform combines quantitative mass spectrometry imaging (QMSI) and microscopy platform with statistical analysis for the understanding of the Omics information at cellular levels. MSI data were acquired from each tissue section as well as matrix control areas adjacent to the tissue sections to check for analyte dispersion/delocalization during sample preparation. Therefore, the ROIs related to EPA and/or Kyn presence were given by an image segmentation algorithm. […] Then, the algorithm smoothed the two ROIs to transform them into connected spaces. Finally, an exposure score was calculated using the Multimaging software using the formula: […]"}}, "data": [{"smiles": "NS(=O)(=O)NCCNc1nonc1C(=NO)Nc1ccc(F)c(Br)c1", "note": "[EPA, Epacadostat]", "values": [{"measurement": "concentration at 2 h", "setting": "[1]", "value": 38500, "unit": "ng/g"}, {"measurement": "correlation between IDO1 expression level (semi-quantitative histology) and EPA levels", "setting": "IDO1; IDO1 immunostaining on serial section", "value": "positive correlation"}, {"measurement": "share of Kyn present in ROI 1 (high EPA)", "setting": "IDO1; ROI 1 = 38% of the entire tumor", "value": 15, "unit": "%"}, {"measurement": "share of Kyn present in ROI 2 (low EPA)", "setting": "IDO1; ROI 2", "value": 85, "unit": "%"}, {"measurement": "concentration at 2 h", "setting": "[2]; plasma", "value": 6600, "unit": "ng/g"}, {"measurement": "concentration at 2 h", "setting": "[2]; whole blood", "value": 7300, "unit": "ng/g"}, {"measurement": "Kp at 2 h", "setting": "[3]; BALB/c, mouse, CT26 tumor relative to plasma, oral, 100 mg/kg, treated CT26 tumors, LC-MS/MS and QMSI", "value": "3 to 4"}, {"measurement": "concentration at 2 h", "setting": "[3]; BALB/c, mouse, CT26 tumor section, ROI 1 (high EPA region), oral, 100 mg/kg, EPA quantity in ROI 1 (high EPA), QMSI, ROI 1 = 38% of tumor surface", "value": 68000, "unit": "ng/g"}, {"measurement": "concentration at 2 h", "setting": "[3]; BALB/c, mouse, CT26 tumor section, ROI 1, oral, 100 mg/kg, EPA quantity corresponding to the share in ROI 1, 61% of EPA signal", "value": 26000, "unit": "ng/g"}, {"measurement": "concentration at 2 h", "setting": "[3]; BALB/c, mouse, CT26 tumor section, ROI 2 (low EPA region), oral, 100 mg/kg, EPA quantity in ROI 2 (low EPA), QMSI, ROI 2 = 62% of tumor surface", "value": 25000, "unit": "ng/g"}, {"measurement": "concentration at 2 h", "setting": "[3]; BALB/c, mouse, CT26 tumor section, ROI 2, oral, 100 mg/kg, EPA quantity corresponding to the share in ROI 2, 39% of EPA signal", "value": 15000, "unit": "ng/g"}, {"measurement": "concentration at 2 h", "setting": "[3]; BALB/c, mouse, CT26 tumor section, ROI 3 (entire section), oral, 100 mg/kg, EPA quantity in ROI 3 (entire treated tumor section), QMSI", "value": 42000, "unit": "ng/g"}, {"measurement": "concentration at 2 h", "setting": "[3]; BALB/c, mouse, CT26 tumor tissue sections, po, 100 mg/kg, EPA quantity in treated CT26 tumor sections, three biological triplicates, QMSI, 100 mg/kg oral gavage, sacrificed 2 hours later", "value": "38000 to 53000", "unit": "ng/g"}, {"measurement": "concentration at 2 h", "setting": "[3]; BALB/c, mouse, CT26 tumor tissue sections, po, 100 mg/kg, average EPA quantity in CT26 tumor, QMSI, 100 mg/kg oral gavage, 2 hours", "value": 46000, "unit": "ng/g"}, {"measurement": "concentration at 2 h", "setting": "[3]; BALB/c, mouse, CT26 tumor tissue, oral, 100 mg/kg, available on tissue quantity of EPA in treated CT26 tumors, LC-MS/MS and QMSI", "value": "35000 to 48000", "unit": "ng/g"}, {"measurement": "share of EPA signal concentrated in ROI 1", "setting": "[3]; ROI 1 = 38% of entire tissue section", "value": "~61", "unit": "%"}, {"measurement": "share of EPA signal in ROI 2", "setting": "[3]; ROI 2 = 62% left tumor region", "value": 39, "unit": "%"}]}]}
